Test results: publication PMC3997483, “Aminostyrylbenzofuran Directly Reduces Oligomeric Amyloid-β and Reverses Cognitive Deficits in Alzheimer Transgenic Mice” (PLoS ONE, 2014)

Test system: SD rats
Assay: 2-week repeated oral dose toxicity study
Format: in vivo
Conditions: for A / G ratio / ALP / ALT / AST / Albumin / B / C ratio / BUN / CHO / CK / CRE / Glucose / K^+ / LDH / Na^+ / T-Bil / TG (triglyceride) / TP: serum
Method: KMS88009 was orally administered once a day by gavage for 14 consecutive days at dose level of 0 (vehicle), 100, 300 and 1,000 mg/kg (n = 5 per group). […] Organs were collected at necropsy; adrenal, kidney, thymus, spleen, heart, lung, liver, testis and brain. The absolute organ weights were measured and the organs-to-body weight ratios were calculated. Blood samples for hematological evaluation were collected from vein of animals under ether anesthesia. Food was withheld overnight before necropsy and blood collections. EDTA was used as an anticoagulant for hematology samples. White blood cell (WBC), red blood cell (RBC), hemoglobin concentration (HGB), hematocrit (HCT), mean corpuscular volume (MCV), mean corpuscular hemoglobin (MCH), mean corpuscular hemoglobin concentration (MCHC), cell hemoglobin concentration mean (CHCM), cell hemoglobin (CH), red cell distribution width (RDW), hemoglobin distribution width (HDW), platelet count (PLT), mean platelet volume (MPV) and reticulocyte were measured by a hematological autoanalyzer (ADVIA 120, Bayer, USA). To get the serum for biochemical analyses, blood samples in a separation tube were centrifuged at 4,000 rpm for 10 min on the day of necropsy. The serum was kept frozen at -70°C until analysis. Sodium citrate was used as an anticoagulant for biochemical analyses. Serum biochemical parameters including aspartate aminotransferase (AST), alanine aminotransferase (ALT), alkaline phosphatase (ALP), total bilirubin (T-Bil), albumin, total protein (TP), albumin/globulin ratio (A/G ratio), glucose, total cholesterol (CHO), triglyceride (TG), lactate dehydrogenase (LDH), creatine kinase (CK), blood urea nitrogen (BUN), creatinine (CRE), blood urea nitrogen/creatinine ratio (B/C ratio), Na^+, K^+ and Cl^- were evaluated by an autoanalyzer (Shimadzu CL-7200, Shimadzu Co., Japan).
All data for single and 2-week repeated oral dose toxicity studies were expressed as the mean ± SD Difference between control and treated groups were evaluated with one-way analysis of variance (ANOVA) followed by Dunnett's test. Value P<0.05 was taken as being statistically significant. Statistical analyses were performed using GraphPad Prism software (USA).

[1] = rats PO 1,000 mg/kg/day, 2 weeks

In the case of COc1ccc2cc(C=Cc3ccc(N(C)C)cc3)oc2c1 [KMS88009, 6-methoxy-2-(4-dimethylaminostyryl) benzofuran], the Body weight (rats PO 300 mg/kg/day, day 11) is reported as 317.6 ± 17.0 g, the Body weight (rats PO 300 mg/kg/day, day 14) is reported as 338.5 ± 16.9 g and the “Abnormal gross findings of necropsy (changed animals / total)” value [1] is reported as 0 / 5. For the same molecule, the Basophils [1] was 0.01 ± 0.01 x10^3/μL, the “Body Weight (at necropsy)” value [1] was 319.932 ± 12.441 g and the Brain weight [1] was 1.922 ± 0.009 g. For the same molecule, the CH [1] was 20.0 ± 0.5 pg, the CHCM [1] was 34.1 ± 0.4 g/dL and the Eosinophils [1] was 0.05 ± 0.04 x10^3/μL. The HDW [1] was 2.29 ± 0.09 g/dL, the Heart weight [1] was 1.074 ± 0.065 g and the Hematocrit [1] was 42.1 ± 2.2%. The Hemoglobin [1] was 14.0 ± 0.8 g/dL, the LUC [1] was 0.06 ± 0.04 x10^3/μL and the Left adrenal weight [1] was 0.025 ± 0.004 g. For the same molecule, the Left kidney weight [1] was 1.342 ± 0.067 g, the Left testis weight [1] was 1.366 ± 0.053 g and the Liver weight [1] was 11.173 ± 0.202 g. For the same molecule, the Lung weight [1] was 1.279 ± 0.094 g, the Lympocytes [1] was 6.50 ± 3.11 x10^3/μL and the MCH [1] was 19.6 ± 0.5 pg. It also gave an MCHC [1] of 33.3 ± 0.6 g/dL, an MCV [1] of 59.0 ± 1.0 fL and an MPV [1] of 7.58 ± 0.3 fL. For the same molecule, the Monocytes [1] was 0.13 ± 0.05 x10^3/μL, the “Mortality (dead animals / total number of animals)” value [1] was 0 / 5 and the Neutrophils [1] was 1.08 ± 0.46 x10^3/μL. For the same molecule, the Platelet [1] was 1325 ± 141 x10^3/μL, the RBC [1] was 7.14 ± 0.27 x10^6/μL and the RDW [1] was 12.1 ± 0.2%. For the same molecule, the “Rate body weight / brain” value [1] was 0.601 ± 0.024%, the “Rate body weight / heart” value [1] was 0.336 ± 0.014% and the “Rate body weight / left adrenal” value [1] was 0.008 ± 0.001%. For the same molecule, the “Rate body weight / left kidney” value [1] was 0.420 ± 0.025%, the “Rate body weight / left testis” value [1] was 0.427 ± 0.025% and the “Rate body weight / liver” value [1] was 3.495 ± 0.093%. For the same molecule, the “Rate body weight / lung” value [1] was 0.400 ± 0.030%, the “Rate body weight / right adrenal” value [1] was 0.008 ± 0.001% and the “Rate body weight / right kidney” value [1] was 0.418 ± 0.030%. The “Rate body weight / right testis” value [1] was 0.427 ± 0.021%, the “Rate body weight / spleen” value [1] was 0.234 ± 0.031% and the “Rate body weight / thymus” value [1] was 0.194 ± 0.017%. For the same molecule, the Retic [1] was 307.4 ± 32.8 x10^3/μL, the Right adrenal weight [1] was 0.026 ± 0.003 g and the Right kidney weight [1] was 1.334 ± 0.067 g. For the same molecule, the Right testis weight [1] was 1.365 ± 0.036 g, the Spleen weight [1] was 0.749 ± 0.112 g and the Symptomatic signs [1] was “-”. The Thymus weight [1] was 0.621 ± 0.073 g, the WBC [1] was 7.83 ± 3.64 x10^3/μL and the Body weight (rats PO 1,000 mg/kg/day, day 1) was 228.3 ± 6.5 g. It also gave a Body weight (rats PO 1,000 mg/kg/day, day 4) of 251.1 ± 8.6 g, a Body weight (rats PO 1,000 mg/kg/day, day 8) of 296.4 ± 14.2 g and a Body weight (rats PO 1,000 mg/kg/day, day 11) of 323.0 ± 15.8 g. For the same molecule, the Body weight (rats PO 1,000 mg/kg/day, day 14) was 346.6 ± 16.1 g, the “A / G ratio” value (rats PO 100 mg/kg/day, 2 weeks) was 0.82 ± 0.08 and the ALP (rats PO 100 mg/kg/day, 2 weeks) was 723.4 ± 40.3 IU/L. It also gave an ALT (rats PO 100 mg/kg/day, 2 weeks) of 37.3 ± 6.2 IU/L, an AST (rats PO 100 mg/kg/day, 2 weeks) of 152.3 ± 47.1 IU/L and an Albumin (rats PO 100 mg/kg/day, 2 weeks) of 2.52 ± 0.18 g/dL. The “B / C ratio” value (rats PO 100 mg/kg/day, 2 weeks) was 28.3 ± 6.1, the BUN (rats PO 100 mg/kg/day, 2 weeks) was 12.2 ± 1.5 mg/dL and the CHO (rats PO 100 mg/kg/day, 2 weeks) was 79.4 ± 15.2 mg/dL. For the same molecule, the CK (rats PO 100 mg/kg/day, 2 weeks) was 258.4 ± 54.3 IU/L, the CRE (rats PO 100 mg/kg/day, 2 weeks) was 0.44 ± 0.05 mg/dL and the Glucose (rats PO 100 mg/kg/day, 2 weeks) was 159.2 ± 23.5 mg/dL. The “K^+” value (rats PO 100 mg/kg/day, 2 weeks) was 4.58 ± 0.43 mmol/L, the LDH (rats PO 100 mg/kg/day, 2 weeks) was 168.0 ± 36.4 IU/L and the “Na^+” value (rats PO 100 mg/kg/day, 2 weeks) was 140.5 ± 1.2 mmol/L. For the same molecule, the T-Bil (rats PO 100 mg/kg/day, 2 weeks) was 0.01 ± 0.01 mg/dL, the “TG (triglyceride)” value (rats PO 100 mg/kg/day, 2 weeks) was 47.0 ± 29.5 mg/dL and the TP (rats PO 100 mg/kg/day, 2 weeks) was 5.66 ± 0.17 g/dL. For the same molecule, the “A / G ratio” value (rats PO 300 mg/kg/day, 2 weeks) was 0.77 ± 0.06, the ALP (rats PO 300 mg/kg/day, 2 weeks) was 755.6 ± 165.7 IU/L and the ALT (rats PO 300 mg/kg/day, 2 weeks) was 32.9 ± 4.7 IU/L. The AST (rats PO 300 mg/kg/day, 2 weeks) was 149.2 ± 24.3 IU/L, the Albumin (rats PO 300 mg/kg/day, 2 weeks) was 2.4 ± 0.00 g/dL and the “B / C ratio” value (rats PO 300 mg/kg/day, 2 weeks) was 29.6 ± 8.1. For the same molecule, the BUN (rats PO 300 mg/kg/day, 2 weeks) was 12.3 ± 2.8 mg/dL, the CHO (rats PO 300 mg/kg/day, 2 weeks) was 81.8 ± 11.6 mg/dL and the CK (rats PO 300 mg/kg/day, 2 weeks) was 222.0 ± 56.7 IU/L. For the same molecule, the CRE (rats PO 300 mg/kg/day, 2 weeks) was 0.42 ± 0.04 mg/dL, the Glucose (rats PO 300 mg/kg/day, 2 weeks) was 148.0 ± 23.5 mg/dL and the “K^+” value (rats PO 300 mg/kg/day, 2 weeks) was 4.73 ± 0.26 mmol/L. The LDH (rats PO 300 mg/kg/day, 2 weeks) was 127.2 ± 47.0 IU/L, the “Na^+” value (rats PO 300 mg/kg/day, 2 weeks) was 139.8 ± 1.8 mmol/L and the T-Bil (rats PO 300 mg/kg/day, 2 weeks) was 0.02 ± 0.01 mg/dL. For the same molecule, the “TG (triglyceride)” value (rats PO 300 mg/kg/day, 2 weeks) was 29.4 ± 7.2 mg/dL, the TP (rats PO 300 mg/kg/day, 2 weeks) was 5.56 ± 0.23 g/dL and the “A / G ratio” value [1] was 0.76 ± 0.04. It also gave an ALP [1] of 736.0 ± 109.1 IU/L, an ALT [1] of 32.7 ± 7.8 IU/L and an AST [1] of 162.0 ± 19.1 IU/L. For the same molecule, the Albumin [1] was 2.44 ± 0.05 g/dL, the “B / C ratio” value [1] was 29.7 ± 2.0 and the BUN [1] was 11.9 ± 0.8 mg/dL. It also gave a CHO [1] of 80.4 ± 18.2 mg/dL, a CK [1] of 260.2 ± 62.0 IU/L and a CRE [1] of 0.4 ± 0.00 mg/dL. For the same molecule, the Glucose [1] was 141.3 ± 15.6 mg/dL, the “K^+” value [1] was 4.87 ± 0.22 mmol/L and the LDH [1] was 126.0 ± 53.9 IU/L. The “Na^+” value [1] was 140.1 ± 1.2 mmol/L, the T-Bil [1] was 0.02 ± 0.01 mg/dL and the “TG (triglyceride)” value [1] was 30.8 ± 7.7 mg/dL. It also gave a TP [1] of 5.62 ± 0.19 g/dL.
